Patent US20130310421A1, “TREATMENT OF AMYLOID BETA AMYLOIDOSIS” (Temple University - Of The Commonwealth System of Higher …, priority 2012, published 2013)
“Also recorded” adds a separate entry of the source.

Tests used:
3xTg mice = assay: Electrophysiology of hippocampal slices (fEPSP, PPF, LTP) of 3xTg mice; assay type: in vivo, mouse; details: 3xTg-MK-591 mice, mean +/- SEM
Protocol: The 3xTg mice harboring a mutant amyloid precursor protein (APP; KM670/671NL), a human mutant PS1 (M146V) knockin, and tau (P301L) transgenes, wild type mice (WT), and mice genetically deficient for FLAPKO (FLAPKO) used in this study were reported previously (Oddo S et al. Neuron 2003, 39:409-421; Byrum R S et al. J Exp Med 1997, 185:1065-1075). All the animals were backcrossed 10 times on the same genetic background C57BL6/SJL. The FLAPKO mice were crossbred several times with 3xTg mice to obtain founder animals (3xTg/FLAPKO), which were then crossed with each other. The animals from these crosses were used for the studies. […]
Six month old mice (n=# slices/# animals): WT (n=23/8); 3xTg (n=21/7); 3xTg-FLAPKO (n=21/6); 3xTg plus MK-591 (n=10/3) were sacrificed by rapid decapitation and brains were put into ice-cold artificial cerebral spinal fluid (CSF) in which sucrose (248 mM) was substituted for NaCl. […] We recorded field excitatory postsynaptic potentials (fEPSPs) from the CAl stratum radiatum by using an extracellular glass pipette ([…]) filled with ACSF. […] Baseline was recorded for 20 mins prior to tetanization with pulses every 30 seconds. […] The fEPSP rise/slope (mV/ms) between 30 and 90% was measured offline using Clampfit 10.3 (Molecular Devices, LLC) and normalized to the mean rise/slope of the baseline. […]

Tg2576 mice = assay: General health and blood parameters of Tg2576 mice on chronic MK-591 diet; assay type: in vivo, mouse
Protocol: The Tg2576 transgenic mice expressing human APP with the Swedish mutation (K670N/M671L) used in these studies were previously described (Pratico D et al. J Neurosci 2001, 21(12):4183-4187). The mice were genotyped by polymerase chain reaction (PCR) analysis using tail DNA and kept in a pathogen-free environment, one 12-hour light/dark cycle and had access to food and water ad libitum. All the experiments presented herein were performed with female mice. Starting at 7 months of age, mice were randomized to receive MK-591 (40 mg/kg weight) (n=11) or vehicle (n=9) in their chow diet for 8 months until they were 15 months old. Considering that each mouse eats on average 5 g/day of chow diet and the diet is formulated for 320 mg MK-591 pwer kg diet (Harlan Teklad, Wis., USA), the final dose of the active drug was approximately 40 mg/kg weight/day.
Starting at seven months of age Tg2576 mice were randomized to receive MK-591 (320 mg/kg diet) or vehicle in their chow diet for 8 months before being sacrificed. Considering that each mouse eats on average 5 g/day of chow diet, the final dose of the active drug was approximately 40 mg/kg weight/day. By the end of the study, body weight, total plasma cholesterol, triglycerides and blood cell counts were not different between the two groups (not shown).

[1] = test system: γ-secretase-mediated cleavage of Notch; assay: γ-secretase-mediated cleavage of Notch (NICD western blot) in transfected N2A-APPswe cells; assay type: cell-based; details: N2A-APPswe cells transfected with Myc-tagged mAE-Notch-1, 24-hour incubation vs vehicle
Protocol: For transfection studies, N2A-APPswe cells were transfected with 1 μg Myc-tagged mAE-Notch-1 complementary DNA overnight (a generous gift from Dr. L. D'Adamio, Albert Einstein Medical College, NY) by using Lipofectamine 2000 (Invitrogen). The media were removed and fresh media containing MK-591, L685, 458 or vehicle was added. After a 24-hour incubation, cell lysates were collected and Notch intracellular domain (NICD) expression levels assayed by western blot analysis.

[2] = MK-591 approximately 40 mg/kg weight/day for 8 months vs vehicle, end of study
[3] = MK-591 approximately 40 mg/kg weight/day in chow for 8 months

| Structure (SMILES) | LTP magnitude as percentage of baseline, 0-10 minutes post-tetanus (3xTg mice; n=10 slices, 3xTg 159.9%, WT 274.6%) | LTP magnitude as percentage of baseline, 170-180 minutes post-tetanus (3xTg mice; 3xTg 121.0%, WT 202.6%) | blood cell counts (Tg2576 mice; [2]) | total plasma cholesterol (Tg2576 mice; [2]) | triglycerides (Tg2576 mice; [2]) | overall general health (Tg2576 mice; [3]) | post-mortem macroscopic pathology of organs (spleen, liver, thymus, ileum) (Tg2576 mice; [3]) | body weight (Tg2576 mice; MK-591 approximately 40 mg/kg weight/day in chow for 8 months vs vehicle) | Notch intracellular domain (NICD) levels [1] |
| --- | --- | --- | --- | --- | --- | --- | --- | --- | --- |
| CC(C)(C)Sc1c(CC(C)(C)C(=O)O)n(Cc2ccc(Cl)cc2)c2ccc(OCc3ccc4ccccc4n3)cc12 [MK-591, 3-[3-tert-butylsulfanyl-1-[(4-chlorophenyl)methyl]-5-(quinolin-2-ylmethoxy)indol-2-yl]-2,2,-dimethylpropanoic acid] | 272.5%+/−13.2% | 202.5%+/−9.4% | not different | not different | not different | No macroscopic effect | no sign of macroscopic pathology | no significant difference; also recorded: not different |  |
| CC(C)C[C@H](NC(=O)[C@H](Cc1ccccc1)C[C@@H](O)[C@H](Cc1ccccc1)NC(=O)OC(C)(C)C)C(=O)N[C@@H](Cc1ccccc1)C(N)=O [L685,458] |  |  |  |  |  |  |  |  | significant reduction |
